According to patent US8791258B2, “Pro-fluorescent probes” (The Regents of the University of California, priority 2008, dated 2014):

Tests used:
[1] = Fluorescence response to various ROS (H2O2 selectivity); conditions: 100 μM ROS, 20 mM HEPES, pH 7, 25° C.
Procedure: (§1) FIG. 7 is the fluorescence response of 5 μM PF1 to various ROS (10 mM O2^−, 100 μM for all other ROS). .OH and .Ot-Bu were generated by reaction of Fe^2+ with H2O2 or tert-butyl hydroperoxide (TBHP), respectively. NO was delivered using S-nitrosocysteine (SNOC). Spectra were acquired in 20 mM HEPES, pH 7, and all data were obtained after incubation with the appropriate ROS at 25° C. for 1 h. Collected emission was integrated between 460 and 700 nm (λexc=450 nm).
FIG. 8 is the fluorescence response of 5 μM PR1 to various ROS (10 mM O2^−, 100 μM for all other ROS). .OH and .O^tBu were generated by reaction of Fe^2+ with H2O2 or tert-butyl hydroperoxide (TBHP), respectively. NO was delivered using S-nitrosocysteine (SNOC). Spectra were acquired in 20 mM HEPES, pH 7, and all data were obtained after incubation with the appropriate ROS at 25° C. for 30 min. Collected emission was integrated between 570 and 800 nm (λexc=560 nm).
as §1, with “FIG. 9” for “FIG. 7”, “of 10” for “of 5”, “μM PX1” for “μM PF1”, “between 370” for “between 460”, “and 600” for “and 700”, “nm (λexc=350” for “nm (λexc=450”
(§2) Millipore water was used to prepare all aqueous solutions. All spectroscopic measurements were performed in 20 mM HEPES buffer, pH 7. Absorption spectra were recorded using a Varian Cary 50 spectrophotometer (Walnut Creek, Calif.). Fluorescence spectra were recorded using a Photon Technology International Quanta Master 4 L-format scanning spectrofluorometer (Lawrenceville, N.J.) equipped with an LPS-220B 75-W xenon lamp and power supply, A-1010B lamp housing with integrated igniter, switchable 814 photon-counting/analog photomultiplier detection unit, and MD5020 motor driver. Samples for absorption and fluorescence measurements were contained in 1-cm×1-cm quartz cuvettes (1.4- or 3.5-mL volume, Starna, Atascadero, Calif.).
FIG. 7, FIG. 8 and FIG. 9 compare the relative reactivities of boronate-based PF1, PR1, and PX1, respectively, toward various ROS.

[2] = test system: embryonic rat hippocampal neurons (E18); experiment: Fluorescence imaging of H2O2 in cultured hippocampal neurons; type: cell-based
Procedure: Hippocampal primary cultures were prepared from embryonic day 18 (E18) rat embryos according to a previously reported protocol. Briefly, hippocampi were dissociated by treatment with trypsin for 20 min at 37° C. followed by washing. The neuronal cells were plated on glass coverslips (Carolina Biological, Burlington, N.C.) coated with poly-L-lysine ([…], Sigma) and cultured in neurobasal medium supplemented with 2 mM Glutamax and 2% B-27 (Invitrogen). After 10 days in vitro, the cultures were washed with PBS, incubated with the probe in PBS, and imaged.
Finally, the successful use of the Peroxysensor probes for monitoring changes in intracellular H2O2 concentrations in mammalian cell lines using either confocal or two-photon microscopy led us to evaluate their utility in primary culture systems. […] Control neurons without PF1 and/or H2O2 treatment show no detectable fluorescence enhancements. These experiments confirm that PF1 can be used in living neurons to detect oxidative stress events.

HEK cells = experiment: Confocal and two-photon fluorescence imaging of H2O2 in live HEK cells; conditions: for intracellular background fluorescence of probe-loaded cells before H2O2: 5-10 μM probe, 2-10 min at 25° C.; for intracellular fluorescence after addition of H2O2: probe-loaded cells, 10-100 μM H2O2
Procedure: (a) Fluorescence image of HEK cells incubated with 5 μM PF1 for 5 min at 25° C. (b) Fluorescence image of PF1-stained HEK cells treated with 100 μM H2O2 for 11 min at 25° C. Excitation was provided at 488 nm, and emission was collected in a window from 505 to 580 nm. Scale bar=27 μm.
(a) Fluorescence image of HEK cells incubated with 10 μM PR1 for 10 min at 25° C. (b) Fluorescence image of PR1-stained HEK cells treated with 100 μM H2O2 for 30 min at 25° C. Excitation was provided at 543 nm, and emission was collected in a window from 548 to 644 nm. Scale bar=18 μm.
(a) Fluorescence image of HEK cells incubated with 10 μM PX1 for 2-3 min at 25° C. (b) Fluorescence image of PX1-stained HEK cells treated with 100 μM H2O2 for 30 min at 25° C. Two-photon excitation was provided at 704 nm, and emission was collected in a window from 420 to 500 nm. Scale bar=18 μm.
HEK 293T cells were cultured in Dulbecco's Modified Eagle Medium (DMEM, Invitrogen, Carlsbad, Calif.) supplemented with 10% Fetal Bovine Serum (FBS, Invitrogen), glutamine (2 mM), and penicillin/streptomycin (50 μg/ml, Invitrogen). One day before imaging, cells were passed and plated on 18-mm glass coverslips coated with poly-L-lysine (50 μg/ml, Sigma, St. Louis, Mo.). Immediately before the experiments, cells were washed with PBS buffer, incubated with the probe in PBS, and imaged.
Confocal fluorescence imaging was performed with a Zeiss LSM510 META laser scanning microscope containing an Axioplan 2 MOT upright microscope and a 40× water-immersion objective lens. Excitation of PF1-loaded cells at 488 nm was carried out with an argon ion laser, and emission was Collected in a window from 505 nm to 580 nm using a META detection system. Excitation of PR1-loaded cells at 543 nm was carried out with a HeNe laser, and emission was collected in a window from 548 nm to 644 nm using a META detector. PF1 or PR1 were incubated with live cell samples for 5 to 10 min. Addition of H2O2 (10 to 100 μM) to cell samples was performed directly on the microscope stage by bath application to the media.
Two-photon fluorescence imaging of PX1 was carried out using an inverted Zeiss LSM510 Axiovert 200M microscope with a NeoFLUAR 40×/1.3 NA oil-immersion objective lens. Samples were excited by 704-nm pulses from a mode-locked Ti:Sapphire laser (Tsunami, SpectraPhysics, 120-150 fs pulse width, 80 MHz repetition rate). The emission light was filtered with a 80-nm wide bandpass filter centered at 460 nm (460BP40, Chroma) and detected with the non-descanned detector (NDD) of the LSM510.

[3] = Absorption and emission properties, fluorescence quantum yield; type: physicochemical; conditions: absorption maximum 350 nm; 20 mM HEPES, pH 7
Procedure: as §2
as §2, with “recorded on” for “recorded using”, “Creek, Calif.) and fluorescence” for “Creek, Calif.). Fluorescence”, “and emission” for “and fluorescence”, “cuvettes (1.5-mL” for “cuvettes (1.4- or 3.5-mL”, “Calif.). Fluorescence quantum yields were determined by reference to fluorescein in 0.1M NaOH (Φ=0.95).” for “Calif.).”

[4] = Fluorescence response to H2O2 in 20 mM HEPES, pH 7
Procedure: as §2
The Peroxysensor reagents were evaluated under simulated physiological conditions (20 mM HEPES buffer, pH 7). […] FIG. 4, FIG. 5 and FIG. 6 show the fluorescence responses of PF1, PR1, and PX1, respectively, to H2O2.

| membrane permeability / cell entry (HEK cells) | SMILES | higher response for H2O2 over .OH ([1]; .OH from Fe2+ with H2O2) | higher response for H2O2 over .OtBu ([1]; .OtBu from Fe2+ with TBHP) | background fluorescence of probe-loaded neurons ([2]; 10 μM probe, 5 min at 25° C.) | intracellular fluorescence under simulated oxidative stress ([2]; 300 μM H2O2 for 30 min at 25° C.) | cell viability during imaging (HEK cells) | intracellular background fluorescence of probe-loaded cells before H2O2 (HEK cells) | intracellular fluorescence after addition of H2O2 (HEK cells) | higher response for H2O2 over NO ([1]; NO delivered using SNOC) | higher response for H2O2 over tert-butyl hydroperoxide (TBHP) [1] | extinction coefficient ε at 350 nm [3] | increase in integrated fluorescence intensity / integrated emission on reaction with H2O2 (dynamic range) [4] |
| --- | --- | --- | --- | --- | --- | --- | --- | --- | --- | --- | --- | --- |
| can passively enter live cells | CC1(C)OB(c2ccc3c(c2)Oc2cc(B4OC(C)(C)C(C)(C)O4)ccc2C32OC(=O)c3ccccc32)OC1(C)C [PF1, 3′,6″-Bis(pinacolatoboron)fluoran] | > 3 fold | > 15 fold | negligible background fluorescence | notable increases in intracellular fluorescence | cells are viable throughout the imaging experiments | negligible intracellular background fluorescence | prompt increases in intracellular green fluorescence | – | – | – | – |
| – | CC1(C)OB(c2ccc3c(=O)c4ccc(B5OC(C)(C)C(C)(C)O5)cc4oc3c2)OC1(C)C [PX1, 3,6-Bis(pinacolatoboron)xanthone] | – | – | – | – | – | minimal intracellular background fluorescence | Prompt increases in intracellular blue fluorescence | ca. 6 fold | > 100 fold | 4700 M⁻¹ cm⁻¹ | 52 fold |
